Laboratory results reported in ChEMBL document CHEMBL3632522, “Novel 3,4-methylenedioxyde-6-X-benzaldehyde-thiosemicarbazones: Synthesis and antileishmanial effects against Leishmania amazonensis” (Eur J Med Chem, 2015).
Calls of active or inactive are those of the source. The calls are words filed in the database; no cut-off is given here.

Legend:
[1] = tested on: Leishmania amazonensis; test: Antileishmanial activity against Leishmania amazonensis MHOM/BR/77/LTB0016 assessed as inhibition of parasite growth incubated for 72 hrs by MTT assay; type: functional, organism-based; settings: for IC50: MHOM/BR/77/LTB0016, 72 h
[2] = tested on: Leishmania amazonensis; test: Antileishmanial activity against Leishmania amazonensis Leishmania amazonensis MHOM/BR/77/LTB0016 intracellular amastigotes infected in BALB/c mouse macrophages incubated for 72 hrs by microscopy; type: functional, organism-based; settings: MHOM/BR/77/LTB0016, 72 h
[3] = Cytotoxicity against BALB/c mouse peritoneal macrophages assessed as cell viability after 72 hrs by resazurin assay; type: cell-based, Peritoneal macrophage cell; settings: read-out: LD50
[4] = Selectivity index, ratio of LD50 for BALB/c mouse peritoneal macrophages to IC50 for Leishmania amazonensis MHOM/BR/77/LTB0016 intracellular amastigotes infected in BALB/c mouse peritoneal macrophages
[5] = Cytotoxicity against BALB/c mouse peritoneal macrophages infected with Leishmania amazonensis MHOM/BR/77/LTB0016 intracellular amastigotes assessed as cell viability at 12.5 to 100 uM after 72 hrs by resazurin staining based optical microscopy; settings: peritoneal macrophage cell
[6] = tested on: Leishmania amazonensis; test: Antileishmanial activity against Leishmania amazonensis Leishmania amazonensis MHOM/BR/77/LTB0016 intracellular amastigotes infected in BALB/c mouse macrophages at 12.5 to 100 uM incubated for 72 hrs by optical microscopy; type: functional, organism-based

Compound	inhibition [1]	IC50 [1]	IC50 [2]	CC50 at 72 h [3]	Ratio LD50/IC50 [4]	Activity [5]	Activity [6]
NC(=S)N/N=C/c1cc2c(cc1Br)OCO2	Dose-dependent effect	202 µM	–	–	–	–	–
NC(=S)N/N=C/c1cc2c(cc1[N+](=O)[O-])OCO2	Dose-dependent effect	271 µM	–	–	–	–	–
NC(=S)N/N=C/c1cc2c(cc1O)OCO2	Dose-dependent effect	53 µM	–	–	–	–	–
NC(=S)N/N=C/c1cc2c(cc1I)OCO2	Dose-dependent effect	20.7 µM	22 µM	> 125 µM	>5.7	Non-toxic	Active
NC(=S)N/N=C/c1cc2c(cc1F)OCO2	Dose-dependent effect	197 µM	–	–	–	–	–
NC(=S)N/N=C/c1cc2c(cc1N)OCO2	Dose-dependent effect	119 µM	–	–	–	–	–
N=C(N)c1ccc(OCCCCCOc2ccc(C(=N)N)cc2)cc1 [PENTAMIDINE]	Dose-dependent effect	4.8 µM	1.9 µM	8.5 µM	4.5	–	–
NC(=S)N/N=C/c1cc2c(cc1Cl)OCO2	Dose-dependent effect	244 µM	–	–	–	–	–
N#Cc1cc2c(cc1/C=N/NC(N)=S)OCO2	Dose-dependent effect	16.4 µM	17 µM	> 125 µM	>7.4	Non-toxic	Active
NC(=S)N/N=C/c1ccc2c(c1)OCO2	Dose-dependent effect	79.7 µM	–	–	–	–	–
NC(=S)N/N=C/c1cc2c(cc1NC(=O)CCl)OCO2	Dose-dependent effect	256 µM	–	–	–	–	–
